Source: PubChem BioAssay AID248 (DTP/NCI, 2004)
“And” between values parts separate entries of the source, which are not always exact repeats. Identical values can stand only once. Inconclusive results and toxic doses are left out. No stated cut-off is given here; in the data, active means T/C of 150% or more; inactive means T/C below 125%.

Tested on: L1210 leukemia ip in BDF1 mice, survival T/C
Assay: NCI In Vivo Anticancer Drug Screen. Data for tumor model L1210 Leukemia (intraperitoneal) in B6D2F1 (BDF1) mice
Conditions: endpoint: mean survival time, higher = longer survival
In short: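 Read-out is survival time, reported as the treated-group measurement over the vehicle-control measurement.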

[1] = dose: 100.0 mg/kg/injection, schedule: Q04DX003 (ip), vehicle: Klucel (hydroxypropylcellulose) (HPC)
[2] = dose: 200.0 mg/kg/injection, schedule: Q04DX003 (ip), vehicle: Klucel (hydroxypropylcellulose) (HPC)
[3] = dose: 400.0 mg/kg/injection, schedule: Q04DX003 (ip), vehicle: Klucel (hydroxypropylcellulose) (HPC)
[4] = dose: 50.0 mg/kg/injection, schedule: Q01DX009 (ip), vehicle: saline
[5] = dose: 100.0 mg/kg/injection, schedule: Q01DX009 (ip), vehicle: saline
[6] = dose: 100.0 mg/kg/injection, schedule: Q04DX003 (ip), vehicle: saline
[7] = dose: 200.0 mg/kg/injection, schedule: Q01DX009 (ip), vehicle: saline
[8] = dose: 200.0 mg/kg/injection, schedule: Q04DX003 (ip), vehicle: saline
[9] = dose: 400.0 mg/kg/injection, schedule: Q04DX003 (ip), vehicle: saline
[10] = dose: 100.0 mg/kg/injection, schedule: Q01DX009 (ip), vehicle: Klucel (hydroxypropylcellulose) (HPC)
[11] = dose: 200.0 mg/kg/injection, schedule: Q01DX009 (ip), vehicle: Klucel (hydroxypropylcellulose) (HPC)
[12] = dose: 400.0 mg/kg/injection, schedule: Q01DX009 (ip), vehicle: Klucel (hydroxypropylcellulose) (HPC)
[13] = dose: 100.0 mg/kg/injection, schedule: Q04DX002 (ip), vehicle: Klucel (hydroxypropylcellulose) (HPC)
[14] = dose: 100.0 mg/kg/injection, schedule: Q01DX001 (ip), vehicle: saline
[15] = dose: 200.0 mg/kg/injection, schedule: Q01DX001 (ip), vehicle: saline
[16] = dose: 400.0 mg/kg/injection, schedule: Q01DX001 (ip), vehicle: saline
[17] = dose: 50.0 mg/kg/injection, schedule: Q01DX001 (ip), vehicle: saline
[18] = dose: 100.0 mg/kg/injection, schedule: Q01DX001 (ip), vehicle: carboxymethylcellulose (CMC)
[19] = dose: 200.0 mg/kg/injection, schedule: Q01DX001 (ip), vehicle: carboxymethylcellulose (CMC)
[20] = dose: 400.0 mg/kg/injection, schedule: Q01DX001 (ip), vehicle: carboxymethylcellulose (CMC)
[21] = dose: 50.0 mg/kg/injection, schedule: Q04DX003 (ip), vehicle: saline

Measured: T/C

CCCCCCCCCCCCCCCCCCCCCCCCCCCCCC
inactive: [1] 93 % of control | [2] 89 % of control | [3] 89 % of control

CC1=C(CC/C(C)=C/CCC(=O)O)C(C)(C)CCC1
inactive: [4] 100 % of control | [5] 100 % of control | [6] 116 % of control | [7] 98 % of control | [8] 100 % of control | [9] 111 % of control

O=C(NCc1ccc([N+](=O)[O-])cc1)OCc1ccccc1
inactive: [10] 103 % of control | [1] 102 % of control | [11] 102 % of control | [2] 104 % of control | [12] 94 % of control | [3] 96 % of control

ClC1C(Cl)C(Cl)C(Cl)C(Cl)C1Cl (centres undefined)
inactive: [4] 103 % of control | [5] 103 % of control | [7] 108 % of control

C/C=C/C=N/n1c(CCC)nc2ccccc2c1=O
inactive: [13] 90 % of control | dose: 200.0 mg/kg/injection, schedule: Q04DX002 (ip), vehicle: Klucel (hydroxypropylcellulose) (HPC) 104 % of control

CCCCCCCC(=O)N1CCCN(C(=O)CCCCCCC)C1
inactive: dose: 30.0 mg/kg/injection, schedule: Q01DX001 (ip), vehicle: saline 94 % of control | [14] 100 % of control

C=C1CC(CC)C(C)OC1=O (centres undefined)
inactive: [14] 102 % of control | [15] 102 % of control | [16] 98 % of control

CC(O)(c1ccccc1)C(C(=O)O)c1ccccc1 (centres undefined)
inactive: [17] 103 % of control | [14] 103 % of control | [15] 103 % of control | [16] 97 % of control

Nc1ccc(C(=O)Oc2ccc([N+](=O)[O-])cc2)c(O)c1
inactive: [10] 95 % of control | [1] 100 % of control | [11] 97 % of control | [2] 88 % of control | [12] 87 % of control | [3] 96 % of control

O=C(Nc1ccc(Cl)c(Cl)c1)C(Cl)Cl
inactive: [13] 109 % of control | dose: 400.0 mg/kg/injection, schedule: Q04DX002 (ip), vehicle: Klucel (hydroxypropylcellulose) (HPC) 103 % of control

COc1ccc(OC)c(NC(=O)Nc2cccc(C(F)(F)F)c2)c1
inactive: dose: 25.0 mg/kg/injection, schedule: Q01DX009 (ip), vehicle: carboxymethylcellulose (CMC) 97 % of control and 87 % of control | dose: 50.0 mg/kg/injection, schedule: Q01DX009 (ip), vehicle: carboxymethylcellulose (CMC) 112 % of control and 88 % of control | [18] 103 % of control and 107 % of control | dose: 100.0 mg/kg/injection, schedule: Q01DX009 (ip), vehicle: carboxymethylcellulose (CMC) 87 % of control | dose: 100.0 mg/kg/injection, schedule: Q04DX002 (ip), vehicle: carboxymethylcellulose (CMC) 95 % of control and 89 % of control | dose: 100.0 mg/kg/injection, schedule: Q04DX003 (ip), vehicle: carboxymethylcellulose (CMC) 103 % of control and 87 % of control | [19] 96 % of control and 89 % of control | dose: 200.0 mg/kg/injection, schedule: Q04DX002 (ip), vehicle: carboxymethylcellulose (CMC) 92 % of control and 99 % of control | dose: 200.0 mg/kg/injection, schedule: Q04DX003 (ip), vehicle: carboxymethylcellulose (CMC) 93 % of control and 87 % of control | [20] 94 % of control and 100 % of control | dose: 400.0 mg/kg/injection, schedule: Q01DX009 (ip), vehicle: carboxymethylcellulose (CMC) 86 % of control | dose: 400.0 mg/kg/injection, schedule: Q04DX002 (ip), vehicle: carboxymethylcellulose (CMC) 86 % of control | dose: 400.0 mg/kg/injection, schedule: Q04DX003 (ip), vehicle: carboxymethylcellulose (CMC) 90 % of control

Brc1ccc(SCN(CSc2ccc(Br)cc2)Cc2ccccc2)cc1
inactive: [14] 93 % of control | [15] 87 % of control | [16] 93 % of control

Cc1cc(C)c(C)c(C(=O)O)c1C
inactive: dose: 100.0 mg/kg/injection, schedule: Q01DX001 (ip), vehicle: acetone 98 % of control | dose: 100.0 mg/kg/injection, schedule: Q01DX009 (ip), vehicle: acetone 101 % of control | [6] 88 % of control | dose: 200.0 mg/kg/injection, schedule: Q01DX001 (ip), vehicle: acetone 89 % of control | dose: 200.0 mg/kg/injection, schedule: Q01DX009 (ip), vehicle: acetone 106 % of control | [8] 102 % of control | dose: 400.0 mg/kg/injection, schedule: Q01DX001 (ip), vehicle: acetone 94 % of control | dose: 400.0 mg/kg/injection, schedule: Q01DX009 (ip), vehicle: acetone 105 % of control | [9] 112 % of control

CC(C)N(CC#N)C(C)C
inactive: dose: 0.25 mg/kg/injection, schedule: Q01DX009 (ip), vehicle: saline with Tween-80 93 % of control | dose: 0.5 mg/kg/injection, schedule: Q01DX009 (ip), vehicle: saline with Tween-80 95 % of control

ClC(Cl)c1nc2ccccc2[nH]1
inactive: dose: 25.0 mg/kg/injection, schedule: Q01DX001 (ip), vehicle: Klucel (hydroxypropylcellulose) (HPC) 94 % of control | [21] 97 % of control

CCNCCNC
inactive: [4] 96 % of control | [5] 101 % of control | [6] 108 % of control | [8] 101 % of control

O=Cc1ccccc1B(O)O
inactive: dose: 50.0 mg/kg/injection, schedule: Q01DX009 (ip), vehicle: Klucel (hydroxypropylcellulose) (HPC) 96 % of control and 101 % of control | [10] 97 % of control and 100 % of control | [1] 98 % of control | [11] 105 % of control and 124 % of control | [2] 86 % of control

COc1ccc2c(c1O)C13CCN(C)C(C2)C1CCC1(C3)OCCO1 (centres undefined)
inactive: [14] 95 % of control | [5] 100 % of control | [15] 104 % of control | [7] 103 % of control | [16] 98 % of control

CN(C)CCN=Cc1[nH]c(=S)[nH]c(=O)c1Cc1ccc(Cl)cc1
inactive: [1] 101 % of control | [2] 94 % of control | [3] 95 % of control

S=P(c1ccccc1)(c1ccccc1)C(P(c1ccccc1)c1ccccc1)P(c1ccccc1)c1ccccc1
inactive: dose: 100.0 mg/kg/injection, schedule: Q04DX002 (ip), vehicle: saline with Tween-80 97 % of control | dose: 200.0 mg/kg/injection, schedule: Q04DX002 (ip), vehicle: saline with Tween-80 100 % of control | dose: 400.0 mg/kg/injection, schedule: Q04DX002 (ip), vehicle: saline with Tween-80 97 % of control

CN(C)CCC(=O)c1ccccc1
inactive: dose: 12.5 mg/kg/injection, schedule: Q01DX009 (ip), vehicle: saline 101 % of control | dose: 25.0 mg/kg/injection, schedule: Q01DX009 (ip), vehicle: saline 101 % of control | dose: 25.0 mg/kg/injection, schedule: Q04DX003 (ip), vehicle: saline 105 % of control | [17] 103 % of control | [4] 98 % of control | [21] 101 % of control | [14] 103 % of control | [6] 100 % of control

CCOC(=O)CCC1C(C#N)C2(Cl)C(Cl)=C(Cl)C1(Cl)C2(Cl)Cl (centres undefined)
inactive: [10] 98 % of control | [1] 93 % of control | [11] 98 % of control | [2] 93 % of control | [12] 96 % of control | [3] 92 % of control

COC1C(COC(=O)c2ccccc2)OC2OC(C)(C)OC21 (centres undefined)
inactive: dose: 50.0 mg/kg/injection, schedule: Q01DX001 (ip), vehicle: carboxymethylcellulose (CMC) 98 % of control | [18] 98 % of control | [19] 93 % of control | [20] 109 % of control

CC1(CCc2ccc(N)cc2)NC(=O)NC1=O (centres undefined)
inactive: [1] 110 % of control | [2] 96 % of control | [3] 93 % of control

C=CCc1ccc(OCCOCCNC2C(C)CCCC2(C)C)c(OC)c1 (centres undefined)
inactive: dose: 5.0 mg/kg/injection, schedule: Q01DX009 (ip), vehicle: Klucel (hydroxypropylcellulose) (HPC) 101 % of control | dose: 5.0 mg/kg/injection, schedule: Q04DX003 (ip), vehicle: Klucel (hydroxypropylcellulose) (HPC) 96 % of control | dose: 10.0 mg/kg/injection, schedule: Q01DX009 (ip), vehicle: Klucel (hydroxypropylcellulose) (HPC) 100 % of control | dose: 10.0 mg/kg/injection, schedule: Q04DX003 (ip), vehicle: Klucel (hydroxypropylcellulose) (HPC) 90 % of control | dose: 20.0 mg/kg/injection, schedule: Q01DX009 (ip), vehicle: Klucel (hydroxypropylcellulose) (HPC) 97 % of control | dose: 20.0 mg/kg/injection, schedule: Q04DX003 (ip), vehicle: Klucel (hydroxypropylcellulose) (HPC) 96 % of control

C/C(=C/CO)CC/C=C(\C)CC/C=C(\C)CCC1OC1(C)C (centres undefined)
inactive: [14] 92 % of control | [15] 96 % of control | [16] 102 % of control

COc1cc2c(cc1OC)C1C(O)C(OC)C=C3CCN(C2)C31 (centres undefined)
inactive: [14] 100 % of control | [15] 97 % of control | [16] 103 % of control
